We go through 59 molecules from the METLIN SMRT retention time set (Domingo-Almenara et al. 2019).

Each structure is given as a SMILES string.

The data set can be described thus: gradient 5% acetonitrile 3 min, to 50% in 2 min, to 85% in 15 min, held 3 min, 100 µL/min. The settings on record: column: Zorbax Extend-C18 2.1 x 50 mm; eluents: water / acetonitrile, 0.1% formic acid. A digest of the protocol: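 The system's dead and dwell volumes were 40 μL and 900 μL, with a Zorbax Extend-C18 column (2.1 × 50 mm, 1.8 μm) run at 100 μL/min in water and acetonitrile containing 0.1% formic acid each. Pure standards were analyzed in mixtures of ~100 molecules by HPLC–quadrupole time-of-flight mass spectrometry in positive and negative ionization mode. Retention time was assigned from computationally picked, manually inspected adduct peaks.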
Turning to `CCOC(=O)C1=C(C)NC2=C(C(=O)c3ccccc32)C1c1ccccc1OC` (centres undefined), the RP-LC retention time is 950 s.
With `CC(C)CNC(=O)N1CCCC(c2nn[nH]n2)C1` (centres undefined) the figure was 617 s; with `COC[C@@H]1CN(S(=O)(=O)c2ccccc2)C[C@H]1c1ccncc1`, 624 s; with `Cc1nc(-c2ccc(OC3CCN(C(=O)NCC(C)C)C3)cc2)no1` (centres undefined), 809 s.
Consider `CC(=O)N1CCN(c2cc(-c3nc(-c4cccc(F)c4)no3)c3ccccc3n2)CC1`, for which the RP-LC retention time was found to be 1090 s.
As to `Cc1ccc(N2CCN(c3nccn4c(=O)n(CC(=O)Nc5cc(C)cc(C)c5)nc34)CC2)cc1`, the RP-LC retention time was 1030 s.
For the molecule `CCS(=O)(=O)N1CC(=O)N(c2ccc(C)c(Cl)c2)C(C)(C(=O)NCc2ccccc2)C1` (centres undefined), the RP-LC retention time was found to be 919 s.
With `O=C(NCc1ccc(Cl)cc1)C(=O)NCC1CCCO1` (centres undefined) the figure was 762 s; with `CC(C)(Oc1ccc(Cl)cc1)C(=O)Nc1ccc(-c2cn3cccnc3n2)cc1`, 794 s; with `CCN1C(=O)c2ccccc2Oc2ccc(C(=O)NCC(C)c3ccccc3)cc21` (centres undefined), 985 s.
With `CCSc1nc2ccc(NS(=O)(=O)c3ccccc3Cl)cc2s1` the figure was 1030 s.
`O=C(C1CCN(c2nc3ccc(-c4ccsc4)nc3s2)CC1)N1CCCC1` showed an RP-LC retention time of 893 s.
On to `O=C(N1CCc2ccccc2C1)C1(c2ccc(F)cc2)CC1`, for which the RP-LC retention time was 905 s.
With `CCc1noc([C@@H]2CC(F)(F)CN2C(=O)c2coc(C)n2)n1` the figure was 732 s.
The molecule `Cc1c(Cl)cccc1S(=O)(=O)N1CCC(CN2CCCCCC2)CC1` had an RP-LC retention time of 733 s.
Next, `CC1CCN(C(=O)c2ccc3c(c2)CC(=O)N3C)CC1`: 692 s; `COc1ccc(-c2nc(C3CC(=O)N(c4ccc(OC)c(OC)c4)C3)no2)cc1` (centres undefined): 1180 s.
Next, `CS/C(=C\c1ccc(C(=O)c2ccc(C)cc2)n1C)S(C)=O` (centres undefined): 1120 s; `Cn1ncc2c3ccccc3n(CCCC(=O)N3CCN(Cc4ccccc4)CC3)c2c1=O`: 646 s.
Next, `Fc1ccc(-c2noc(Cc3nc(-c4ccc(Cl)cc4)cs3)n2)cc1`: 1310 s; `CCN1c2cc(F)ccc2C(=O)NC12CCN(C(=O)c1ccc(C)cc1)CC2`: 807 s; `Cc1ccc(F)c(NS(=O)(=O)c2cc3n(c2)CCN(C)C3=O)c1`: 696 s.
In turn, `COc1ccc(NC(=O)N2CCCC2c2nc(-c3ccccc3)no2)cc1` (centres undefined) yielded an RP-LC retention time of 876 s.
With `Cc1ccc(NC(=O)N2CCC(n3cnc4ccc(F)cc4c3=O)CC2)cc1F` the figure was 842 s.
With `Cc1ccc(C)c(-n2c(-c3ccc(Cl)cc3)cn3c4c(=O)n(C)c(=O)n(C)c4nc23)c1` the figure was 1110 s; with `Cc1cc(NC2CCCC2)n2nc(-c3ccc(Cl)cc3)c(C)c2n1`, 855 s; with `O=C([C@@H]1C[C@H](Oc2ccccc2)CN1C(=O)c1n[nH]c(=O)c2ccccc12)N1CCCC1`, 703 s.
Next, `CCc1ccc(CNC(=O)C2CCCN(C(=O)c3[nH]c(C)c(C(=O)OC(C)C)c3C)C2)cc1` (centres undefined): 959 s.
With `O=C(c1ccc(-n2cccn2)nn1)N1CCN(C(=O)c2ccco2)CC1`, the RP-LC retention time is 611 s.
On to `COCC(=O)N[C@@H]1CN(C(=O)C2CC=CC2)CC[C@@H]1CO`, for which the RP-LC retention time was found to be 578 s.
With `Cc1nn(C(C)C(=O)Nc2cc(F)ccc2F)c(=O)c2c(-n3cccc3)n(-c3ccccc3)nc12` (centres undefined) the figure was 1130 s; with `CNC(=O)c1cc(Oc2ccc(NC(=O)Nc3cc(C(C)(C)C)nn3-c3ccc4ncccc4c3)c(F)c2)ccn1`, 855 s; with `CCc1ccccc1S(=O)(=O)N1CCC(c2cc(N)on2)CC1`, 824 s.
With `O=C(CCCc1ccccc1)N1CCCC1c1nc(-c2ccccc2Cl)no1` (centres undefined) the figure was 1140 s; with `Cc1ccc(-c2nc3nc(C)cc(N4CCOCC4)n3n2)cc1`, 763 s; with `c1ccc(-c2nc3cc(-c4noc(-c5ccccn5)n4)ccc3o2)cc1`, 1120 s.
With `CC1CCCCN1Cc1nc(-c2ccc(N3CCSCC3)nc2)no1` (centres undefined) the figure was 642 s; with `COC(=O)c1ccc2c(=O)n(-c3cccc(F)c3)c(N3CCCCCC3)nc2c1`, 1210 s.
`Cc1ccc(CNC(=O)c2ccc(CN3CCN(Cc4ccc(F)cc4)C(=O)C3=O)cc2)o1` gave an RP-LC retention time of 823 s.
In turn, `O=C1CC(c2noc(-c3cc(F)cc(F)c3)n2)CN1c1ccc(F)c(Cl)c1` (centres undefined) showed an RP-LC retention time of 1110 s.
Next, `Cc1nc2cc(-c3noc(-c4cc(F)ccc4Cl)n3)ccc2o1`: 1150 s; `O=C(c1cccc(Cl)c1)N1CCN(c2cnn3c(C4CC4)nnc3c2)CC1`: 593 s; `COCCn1cc(CCNC(=O)Nc2ccc(Cl)cc2)c2cccnc21`: 760 s.
With `CCC(C)C(=O)N1CCc2[nH]nc(C(=O)NCCCc3ccccc3)c2C1` (centres undefined) the figure was 781 s; with `Cc1nn(C)c(C)c1CCN(C)C(=O)C1Cn2cccc2C(=O)N1CC(C)C` (centres undefined), 642 s.
Next, `Cc1ncc2c(n1)C[C@@H]1CC[C@H]2N1S(=O)(=O)c1ccccc1`: 695 s.
In the case of `CCn1cnc2ccc(-c3noc(-c4ccc(OC)c(OC)c4)n3)cc21`, the RP-LC retention time amounted to 698 s.
Next, `CCn1c(=O)sc2cc(S(=O)(=O)N3CCC(C(=O)N4CCCCC4C)CC3)ccc21` (centres undefined): 896 s; `O=C(c1cnn(-c2ccccc2)c1-n1cccc1)N1CCN(c2ccccn2)CC1`: 623 s; `Cc1nc(CSc2nnc3ccc(-c4cccnc4)nn23)cs1`: 577 s.
Next, `CC1CCCCN1CCCN1C(=O)c2ccccc2C1C(=O)NC1CCCCC1` (centres undefined): 642 s; `O=C(COc1ccccc1F)Nc1ccc(Cl)c(N2CCCS2(=O)=O)c1`: 791 s; `O=C(c1ccc(F)cc1)N1CCC(CCNS(=O)(=O)c2ccc(F)cc2F)CC1`: 809 s.
Next, `CCOC(=O)CCCn1nc(C)c2nn(-c3ccccc3)c(-n3cccc3)c2c1=O`: 1060 s.
Molecule `C=CCNC(=O)C1CCCN(S(=O)(=O)c2cc(OC)ccc2OC)C1` (centres undefined) came in with an RP-LC retention time of 723 s.
`Cc1ccc(CN2CCC3(CC2)CC(O)(c2ccccn2)CCO3)nc1` (centres undefined) displayed an RP-LC retention time of 539 s.
Next, `CCc1ccc(N2CC(c3noc(-c4ccc5c(c4)OCO5)n3)CC2=O)cc1` (centres undefined): 1060 s; `Cc1ccc(NC(=O)N(C)CCc2noc(COc3ccc(F)cc3)n2)cc1`: 926 s.
The molecule `Cc1cccc(NC(=O)Nc2cnc3c(c2)CCC3)c1` had an RP-LC retention time of 578 s.
